In the supplement of paper PMC10627819:

Assays:
Assay in all cases: fitness (endpoint OD595 vs no drug) (fraction); higher = more growth
[1] = tested on: S. aureus DSM 20231
How it was run: (§1)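 Fitness was defined as the optical density at the transition into stationary phase relative to the robust mean of no-drug control wells. Values were capped at 1. Cultures were started at OD595 0.01 in 384-well plates (30 µl, or 55 µl for S. pneumoniae) in TSB, LB Lennox or CY at 37 °C. OD595 was recorded every 30 min over 14 h, with the first reading subtracted as background.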

[2] = tested on: S. aureus Newman
How it was run: as §1

[3] = tested on: S. pneumoniae D39V
How it was run: as §1

CO[C@@]12[C@H](COC(N)=O)C3=C(C(=O)C(C)=C(N)C3=O)N1C[C@@H]1N[C@@H]12 [Mitomycin C] + CCCCCCCCCC(=O)N[C@@H]1[C@H]([C@@H]([C@H](O[C@H]1OC2=C3C=C4C=C2OC5=C(C=C(C=C5)[C@H]([C@H]6C(=O)N[C@@H](C7=C(C(=CC(=C7)O)OC8[C@H]([C@H]([C@@H]([C@H](O8)CO)O)O)O)C9=C(C=CC(=C9)[C@H](C(=O)N6)NC(=O)[C@@H]4NC(=O)[C@@H]1C2=CC(=CC(=C2)OC2=C(C=CC(=C2)[C@H](C(=O)N[C@H](CC2=CC(=C(O3)C=C2)Cl)C(=O)N1)N)O)O)O)C(=O)O)O[C@H]1[C@@H]([C@H]([C@@H]([C@H](O1)CO)O)O)NC(=O)C)Cl)CO)O)O [Teicoplanin]
fitness, main component drawn
Details | first compound 0.0156 µg/mL | first compound 0.0312 µg/mL | first compound 0.0625 µg/mL
[1], partner 0.1562 µg/mL | 0.813 | 0.757 | 0.513
[1], partner 0.3125 µg/mL | 0.855 | 0.81 | 0.418
[1], partner 0.625 µg/mL | 0.902 | 0.814 | 0.255
[2], partner 0.1562 µg/mL | 0.741 | 0.655 | 0.429
[2], partner 0.3125 µg/mL | 0.753 | 0.582 | 0.296
[2], partner 0.625 µg/mL | 0.568 | 0.417 | 0.138

fitness, [2], one replicate, main component drawn
Details | first compound 0.0156 µg/mL | first compound 0.0312 µg/mL | first compound 0.0625 µg/mL
partner 0.62 µg/mL | 0.603 | 0.482 | 0.141
partner 1.24 µg/mL | 0.482 | 0.322 | 0.02
partner 2.48 µg/mL | 0.0779 | 0.119 | 0.0423

CO[C@@]12[C@H](COC(N)=O)C3=C(C(=O)C(C)=C(N)C3=O)N1C[C@@H]1N[C@@H]12 [Mitomycin C] + CCN(CC)CCOC(=O)c1ccc(N)cc1 [Procaine]
fitness
Details | first compound 0.001075 µg/mL | first compound 0.00215 µg/mL | first compound 0.0043 µg/mL | first compound 0.0156 µg/mL | first compound 0.0312 µg/mL | first compound 0.0625 µg/mL
[1], partner 85.5 µg/mL | – | – | – | 0.724 | 0.668 | 0.533
[1], partner 171 µg/mL | – | – | – | 0.796 | 0.753 | 0.572
[1], partner 342 µg/mL | – | – | – | 0.754 | 0.743 | 0.576
[2], partner 85.5 µg/mL | – | – | – | 0.768 | 0.74 | 0.595
[2], partner 171 µg/mL | – | – | – | 0.765 | 0.695 | 0.582
[2], partner 342 µg/mL | – | – | – | 0.772 | 0.686 | 0.565
[3], partner 85.5 µg/mL | 0.966 | 0.935 | 0.844 | – | – | –
[3], partner 171 µg/mL | 0.929 | 0.939 | 0.814 | – | – | –
[3], partner 342 µg/mL | 0.937 | 0.951 | 0.826 | – | – | –

fitness, [3], one replicate
Details | first compound 0.002 µg/mL | first compound 0.004 µg/mL | first compound 0.008 µg/mL
partner 85.5 µg/mL | 0.923 | 0.885 | 0.633
partner 171 µg/mL | 0.885 | 0.847 | 0.641
partner 342 µg/mL | 0.818 | 0.812 | 0.645

CO[C@@]12[C@H](COC(N)=O)C3=C(C(=O)C(C)=C(N)C3=O)N1C[C@@H]1N[C@@H]12 [Mitomycin C] + CN1C2=CC=CC=C2N=C3C1=CC=CC3=O [Pyocyanin]
fitness
Details | first compound 0.001075 µg/mL | first compound 0.00215 µg/mL | first compound 0.0043 µg/mL | first compound 0.0156 µg/mL | first compound 0.0312 µg/mL | first compound 0.0625 µg/mL
[1], partner 1.25 µg/mL | – | – | – | 0.704 | 0.73 | 0.573
[1], partner 2.5 µg/mL | – | – | – | 0.668 | 0.691 | 0.555
[1], partner 5 µg/mL | – | – | – | 0.547 | 0.543 | 0.414
[2], partner 1.25 µg/mL | – | – | – | 0.648 | 0.614 | 0.49
[2], partner 2.5 µg/mL | – | – | – | 0.558 | 0.58 | 0.406
[2], partner 5 µg/mL | – | – | – | 0.265 | 0.239 | 0.0918
[3], partner 0.325 µg/mL | 0.964 | 0.984 | 0.847 | – | – | –
[3], partner 0.65 µg/mL | 0.964 | 0.975 | 0.844 | – | – | –
[3], partner 1.3 µg/mL | 0.726 | 0.721 | 0.621 | – | – | –

fitness, [3], one replicate
Details | first compound 0.002 µg/mL | first compound 0.004 µg/mL | first compound 0.008 µg/mL
partner 0.325 µg/mL | 0.853 | 0.77 | 0.642
partner 0.65 µg/mL | 0.835 | 0.802 | 0.744

CO[C@@]12[C@H](COC(N)=O)C3=C(C(=O)C(C)=C(N)C3=O)N1C[C@@H]1N[C@@H]12 [Mitomycin C] + CN(C)c1cc(NC(=O)CNC(C)(C)C)c(O)c2c1C[C@H]1C[C@H]3[C@H](N(C)C)C(O)=C(C(N)=O)C(=O)[C@@]3(O)C(O)=C1C2=O [Tigecycline]
fitness
Details | first compound 0.001075 µg/mL | first compound 0.002 µg/mL | first compound 0.00215 µg/mL | first compound 0.004 µg/mL | first compound 0.0043 µg/mL | first compound 0.008 µg/mL | first compound 0.0156 µg/mL | first compound 0.0312 µg/mL | first compound 0.0625 µg/mL
[2], partner 0.039 µg/mL | – | – | – | – | – | – | 0.7 | 0.661 | 0.551
[2], partner 0.078 µg/mL | – | – | – | – | – | – | 0.725 | 0.655 | 0.558
[2], partner 0.156 µg/mL | – | – | – | – | – | – | 0.746 | 0.679 | 0.505
[3], partner 0.65 µg/mL | 0.89 | 0.878 | 0.848 | 0.804 | 0.819 | 0.688 | – | – | –
[3], partner 1.3 µg/mL | 0.877 | 0.888 | 0.859 | 0.764 | 0.822 | 0.625 | – | – | –
[3], partner 2.6 µg/mL | 0.893 | 0.816 | 0.844 | 0.806 | 0.783 | 0.627 | – | – | –

CO[C@@]12[C@H](COC(N)=O)C3=C(C(=O)C(C)=C(N)C3=O)N1C[C@@H]1N[C@@H]12 [Mitomycin C] + CN[C@@H]1[C@H](O[C@H]2[C@H](O[C@H]3[C@H](O)[C@@H](O)[C@H](N=C(N)N)[C@@H](O)[C@@H]3N=C(N)N)O[C@@H](C)[C@]2(O)C=O)O[C@@H](CO)[C@H](O)[C@H]1O [Streptomycin]
fitness
Details | partner 1 µg/mL | partner 2 µg/mL | partner 4 µg/mL | partner 8 µg/mL
[2], first compound 0.0156 µg/mL | 0.727 | 0.683 | – | –
[2], first compound 0.0312 µg/mL | 0.666 | 0.677 | 0.523 | –
[2], first compound 0.0625 µg/mL | 0.473 | 0.402 | 0.272 | –
[3], first compound 0.001075 µg/mL | – | 0.883 | 0.913 | 0.939
[3], first compound 0.002 µg/mL | – | – | 0.857 | 0.802
[3], first compound 0.00215 µg/mL | – | 0.838 | 0.827 | 0.834
[3], first compound 0.004 µg/mL | – | – | 0.712 | 0.668
[3], first compound 0.0043 µg/mL | – | 0.701 | 0.741 | 0.717
[3], first compound 0.008 µg/mL | – | – | 0.54 | 0.56

fitness, [3], one replicate
Details | first compound 0.002 µg/mL | first compound 0.004 µg/mL | first compound 0.008 µg/mL
partner 2 µg/mL | 0.857 | 0.749 | 0.666
partner 16 µg/mL | 0.711 | 0.544 | 0.304

CO[C@@]12[C@H](COC(N)=O)C3=C(C(=O)C(C)=C(N)C3=O)N1C[C@@H]1N[C@@H]12 [Mitomycin C] + CO[C@H]1/C=C/O[C@@]2(C)Oc3c(C)c(O)c4c(O)c(c(/C=N/N5CCN(C)CC5)c(O)c4c3C2=O)NC(=O)/C(C)=C\C=C\[C@H](C)[C@H](O)[C@@H](C)[C@@H](O)[C@@H](C)[C@H](OC(C)=O)[C@@H]1C [Rifampicin]
fitness, [3]
Details | first compound 0.001075 µg/mL | first compound 0.002 µg/mL | first compound 0.00215 µg/mL | first compound 0.004 µg/mL | first compound 0.0043 µg/mL | first compound 0.008 µg/mL
partner 0.05 µg/mL | 0.779 | 0.647 | 0.664 | 0.558 | 0.517 | –
partner 0.1 µg/mL | 0.458 | 0.289 | 0.307 | 0.308 | 0.288 | 0.288
partner 0.2 µg/mL | 0.18 | – | 0.169 | – | 0.129 | –

fitness, [3], one replicate
Details | first compound 0.002 µg/mL | first compound 0.004 µg/mL | first compound 0.008 µg/mL
partner 0.025 µg/mL | 0.804 | 0.698 | 0.492
partner 0.2 µg/mL | 0 | 0 | 0

CO[C@@]12[C@H](COC(N)=O)C3=C(C(=O)C(C)=C(N)C3=O)N1C[C@@H]1N[C@@H]12 [Mitomycin C] + COc1cc(Cc2cnc(N)nc2N)cc(OC)c1OC [Trimethoprim]
fitness, [1]
Details | partner 0.125 µg/mL | partner 0.25 µg/mL | partner 0.5 µg/mL | partner 1 µg/mL
first compound 0.0156 µg/mL | 0.6 | 0.506 | 0.0394 | 0.0198
first compound 0.0312 µg/mL | 0.604 | 0.485 | 0.0541 | 0.0233
first compound 0.0625 µg/mL | 0.491 | 0.279 | 0.0513 | 0.0116

CO[C@@]12[C@H](COC(N)=O)C3=C(C(=O)C(C)=C(N)C3=O)N1C[C@@H]1N[C@@H]12 [Mitomycin C] + O=C1CN(/N=C/c2ccc([N+](=O)[O-])o2)C(=O)N1 [Nitrofurantoin]
fitness, [3]
Details | first compound 0.001075 µg/mL | first compound 0.002 µg/mL | first compound 0.00215 µg/mL | first compound 0.004 µg/mL | first compound 0.0043 µg/mL | first compound 0.008 µg/mL
partner 1.285 µg/mL | – | 0.896 | – | 0.74 | – | 0.588
partner 2 µg/mL | 0.889 | – | 0.883 | – | 0.759 | –
partner 2.57 µg/mL | – | 0.839 | – | 0.765 | – | 0.535
partner 4 µg/mL | 0.866 | – | 0.835 | – | 0.679 | –
partner 8 µg/mL | 0.803 | – | 0.755 | – | 0.554 | –

[3], partner 5.14 µg/mL, one replicate
Details | fitness
first compound 0.002 µg/mL | 0.723
first compound 0.004 µg/mL | 0.613
first compound 0.008 µg/mL | 0.419
